For assay [1], the target named is human somatostatin receptor subtype 5 (Homo sapiens, UniProt P35346). Kind of assay: cAMP assay for SST5R (inhibition of cAMP via human SST5 receptor). To be noted: for Fold selectivity for SST5 vs SST2: SST5 over SST2, class symbols. In general terms: cAMP levels reflect the balance of adenylyl cyclase and phosphodiesterase activity.
Assay [2] deals with T1, human somatostatin receptor subtype 2 (Homo sapiens, UniProt P30874).
T1 construct: expressed in transfected cells
T1 sequence (P30874 whole entry): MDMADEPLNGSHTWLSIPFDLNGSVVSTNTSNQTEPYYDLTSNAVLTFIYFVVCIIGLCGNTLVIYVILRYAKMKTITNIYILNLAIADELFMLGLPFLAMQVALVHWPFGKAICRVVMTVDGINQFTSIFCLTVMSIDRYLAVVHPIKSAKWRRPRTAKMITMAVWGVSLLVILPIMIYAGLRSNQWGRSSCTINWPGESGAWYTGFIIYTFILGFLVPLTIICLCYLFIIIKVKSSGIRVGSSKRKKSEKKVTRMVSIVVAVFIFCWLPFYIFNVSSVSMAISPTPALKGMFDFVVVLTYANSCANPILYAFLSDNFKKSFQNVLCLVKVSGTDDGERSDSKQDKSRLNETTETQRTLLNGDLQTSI
Kind of assay: cAMP assay for SST2R (inhibition of cAMP via human SST2 receptor). Format: cell-based. The settings on record: Table B, read-out: SST2 potency. An excerpt:
cAMP Assay Protocol for SST2R:

The mark [3] stands for this setting: read-out: SST5 potency, inhibition of cAMP via human SST5 receptor, Table B.

Like-named read-outs stand apart in the source and are kept apart here. A value given as a limit tells only on which side of the number the result lay.

Chain of human somatostatin receptor subtype 5 (P35346 whole entry): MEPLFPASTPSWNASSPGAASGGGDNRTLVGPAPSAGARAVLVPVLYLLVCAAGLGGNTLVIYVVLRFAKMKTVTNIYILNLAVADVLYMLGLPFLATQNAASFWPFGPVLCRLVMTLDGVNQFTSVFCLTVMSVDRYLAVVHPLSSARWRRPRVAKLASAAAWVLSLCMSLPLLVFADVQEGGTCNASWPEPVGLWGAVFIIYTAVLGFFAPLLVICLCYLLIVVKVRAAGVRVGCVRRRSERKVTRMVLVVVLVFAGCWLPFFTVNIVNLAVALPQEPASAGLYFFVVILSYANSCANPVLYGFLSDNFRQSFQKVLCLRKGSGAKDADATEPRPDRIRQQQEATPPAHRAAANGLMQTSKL

For the compound `CC(N)C1CN(c2c(-c3cc(F)cc(C(F)(F)F)c3)cncc2-c2nc3cc(F)cc(F)c3[nH]2)C1` (stereo not drawn) [Compound 1-71, 1-{1-[3-(4,6-difluoro-1H-1,3-benzodiazol-2-yl)-5-[3-fluoro-5-(trifluoromethyl)phenyl]pyridin-4-yl]azetidin-3-yl}ethan-1-amine], the “Fold selectivity for SST5 vs SST2” value in assay [1] is on record as “+++ (+++=≥500)”. Moreover, the EC50 in assay [1] (setting [3]) is under 10 nM; in assay [2] it was over 1000 nM.
Consider `CC1(N)CCN(c2c(-c3cc(F)cc(Cl)c3)cncc2-c2nc3cccc(F)c3[nH]2)C1` (stereo not drawn) [Compound 2-4, 1-[3-(3-chloro-5-fluorophenyl)-5-(4-fluoro-1H-1,3-benzodiazol-2-yl)pyridin-4-yl]-3-methylpyrrolidin-3-amine], for which the EC50 in assay [1] was under 10 nM; in assay [1] (setting [3]), under 10 nM; in assay [2], 10 to 100 nM. The “Fold selectivity for SST5 vs SST2” value in assay [1] was “++ (++=100 to 499)”.
Turning to `CC1(N)CCN(c2c(-c3cc(F)cc(C#N)c3)cncc2-c2nc3cccc(F)c3[nH]2)C1` (stereo not drawn) [Compound 2-6, 3-[4-(3-amino-3-methylpyrrolidin-1-yl)-5-(4-fluoro-1H-1,3-benzodiazol-2-yl)pyridin-3-yl]-5-fluorobenzonitrile], the EC50 in assay [1] is under 10 nM; in assay [1] (setting [3]), under 10 nM; in assay [2] it was 100 to 1000 nM. Further, the “Fold selectivity for SST5 vs SST2” value in assay [1] is listed as “+++ (+++=≥500)”.
As to `N#Cc1cccc(-c2cncc(-c3nc4cccc(F)c4[nH]3)c2N2CC[C@H](N)C2)c1` [Compound 2-7, 3-{4-[(3S)-3-aminopyrrolidin-1-yl]-5-(4-fluoro-1H-1,3-benzodiazol-2-yl)pyridin-3-yl}benzonitrile], the EC50 is under 10 nM in assay [1], under 10 nM in assay [1] (setting [3]) and 100 to 1000 nM in assay [2]. Besides, the “Fold selectivity for SST5 vs SST2” value in assay [1] is listed as “+++ (+++=≥500)”.
Consider `CC1(N)CCN(c2c(-c3cccc(OC(F)(F)F)c3)cncc2-c2nc3cccc(F)c3[nH]2)C1` (stereo not drawn) [Compound 2-10, 1-[3-(4-fluoro-1H-1,3-benzodiazol-2-yl)-5-[3-(trifluoromethoxy)phenyl]pyridin-4-yl]-3-methylpyrrolidin-3-amine], for which the EC50 in assay [1] is under 10 nM; in assay [1] (setting [3]), under 10 nM; in assay [2], 100 to 1000 nM. Moreover, the “Fold selectivity for SST5 vs SST2” value in assay [1] is reported as “+++ (+++=≥500)”.
Consider `CC1(N)CCN(c2c(-c3cccc(C#N)c3)cncc2-c2nc3cccc(F)c3[nH]2)C1` (stereo not drawn) [Compound 2-13, 3-[4-(3-amino-3-methylpyrrolidin-1-yl)-5-(4-fluoro-1H-1,3-benzodiazol-2-yl)pyridin-3-yl]benzonitrile], for which the EC50 was under 10 nM in assay [1], under 10 nM in assay [1] (setting [3]) and 100 to 1000 nM in assay [2]. Also, the “Fold selectivity for SST5 vs SST2” value in assay [1] is on record as “+++ (+++=≥500)”.
`CC1(N)CCN(c2c(-c3cccc(C(N)=O)c3)cncc2-c2nc3c(F)cccc3[nH]2)C1` (stereo not drawn) [Compound 2-18, 3-[4-(3-amino-3-methylpyrrolidin-1-yl)-5-(4-fluoro-1H-1,3-benzodiazol-2-yl)pyridin-3-yl]benzamide]: the EC50 was under 10 nM in assay [1], under 10 nM in assay [1] (setting [3]) and over 1000 nM in assay [2]. The “Fold selectivity for SST5 vs SST2” value in assay [1] is on record as “+++ (+++=≥500)”.
Take `CC1(N)CCN(c2c(-c3cc(F)cc(C(N)=O)c3)cncc2-c2nc3cccc(F)c3[nH]2)C1` (stereo not drawn) [Compound 2-20, 3-[4-(3-amino-3-methylpyrrolidin-1-yl)-5-(4-fluoro-1H-1,3-benzodiazol-2-yl)pyridin-3-yl]-5-fluorobenzamide]: the EC50 was under 10 nM in assay [1], under 10 nM in assay [1] (setting [3]) and 100 to 1000 nM in assay [2]. In assay [1], the “Fold selectivity for SST5 vs SST2” value is given as “+++ (+++=≥500)”.
As for `CC1(N)CCN(c2c(-c3cccc(S(C)(=O)=O)c3)cncc2-c2nc3cccc(F)c3[nH]2)C1` (stereo not drawn) [Compound 2-21, 1-[3-(4-fluoro-1H-1,3-benzodiazol-2-yl)-5-(3-methanesulfonylphenyl)pyridin-4-yl]-3-methylpyrrolidin-3-amine], the EC50 is under 10 nM in assay [1], under 10 nM in assay [1] (setting [3]) and over 1000 nM in assay [2]. Moreover, the “Fold selectivity for SST5 vs SST2” value in assay [1] is recorded as “+++ (+++=≥500)”.
For `CC1(N)CCN(c2c(-c3ccc4c(c3)OCC4)cncc2-c2nc3cccc(F)c3[nH]2)C1` (stereo not drawn) [Compound 2-22, 1-[3-(2,3-dihydro-1-benzofuran-6-yl)-5-(4-fluoro-1H-1,3-benzodiazol-2-yl)pyridin-4-yl]-3-methylpyrrolidin-3-amine], the results for the EC50 in assay [1], in assay [1] (setting [3]) and in assay [2] were under 10 nM, under 10 nM and 100 to 1000 nM, respectively. The “Fold selectivity for SST5 vs SST2” value in assay [1] is on record as “++ (++=100 to 499)”.
As for `N#Cc1cc(-c2cncc(-c3nc4cccc(F)c4[nH]3)c2N2CC[C@H](N)C2)ccc1F` [Compound 2-23, 5-{4-[(3S)-3-aminopyrrolidin-1-yl]-5-(4-fluoro-1H-1,3-benzodiazol-2-yl)pyridin-3-yl}-2-fluorobenzonitrile], the EC50 in assay [1] is under 10 nM; in assay [1] (setting [3]) it was under 10 nM; in assay [2], 100 to 1000 nM. The “Fold selectivity for SST5 vs SST2” value in assay [1] is recorded as “+++ (+++=≥500)”.
Take `N#Cc1ccc(-c2cncc(-c3nc4cccc(F)c4[nH]3)c2N2CC[C@H](N)C2)s1` [Compound 2-26, 5-{4-[(3S)-3-aminopyrrolidin-1-yl]-5-(4-fluoro-1H-1,3-benzodiazol-2-yl)pyridin-3-yl}thiophene-2-carbonitrile]: the results for the EC50 in assay [1], in assay [1] (setting [3]) and in assay [2] were under 10 nM, under 10 nM and 100 to 1000 nM, respectively. Moreover, in assay [1], the “Fold selectivity for SST5 vs SST2” value is “++ (++=100 to 499)”.
Take `CC1(N)CCN(c2c(-c3cc(F)cc(OCC#N)c3)cncc2-c2nc3cccc(F)c3[nH]2)C1` (stereo not drawn) [Compound 2-27, 2-{3-[4-(3-amino-3-methylpyrrolidin-1-yl)-5-(4-fluoro-1H-1,3-benzodiazol-2-yl)pyridin-3-yl]-5-fluorophenoxy}acetonitrile]: the EC50 in assay [1] is under 10 nM; in assay [1] (setting [3]) it was under 10 nM; in assay [2], 100 to 1000 nM. Also, the “Fold selectivity for SST5 vs SST2” value in assay [1] is recorded as “++ (++=100 to 499)”.
In the case of `CC1(N)CCN(c2c(-c3cccc(Cl)c3)cncc2-c2nc3cccc(F)c3[nH]2)C1` (stereo not drawn) [Compound 2-28, 1-[3-(3-chlorophenyl)-5-(4-fluoro-1H-1,3-benzodiazol-2-yl)pyridin-4-yl]-3-methylpyrrolidin-3-amine], the EC50 was under 10 nM in assay [1], under 10 nM in assay [1] (setting [3]) and 10 to 100 nM in assay [2]. For the same compound, the “Fold selectivity for SST5 vs SST2” value in assay [1] is reported as “++ (++=100 to 499)”.
Regarding `CC1(N)CCN(c2c(-c3ccc4cc[nH]c4c3)cncc2-c2nc3cccc(F)c3[nH]2)C1` (stereo not drawn) [Compound 2-29, 1-[3-(4-fluoro-1H-1,3-benzodiazol-2-yl)-5-(1H-indol-6-yl)pyridin-4-yl]-3-methylpyrrolidin-3-amine], the EC50 is under 10 nM in assay [1], under 10 nM in assay [1] (setting [3]) and 100 to 1000 nM in assay [2]. In addition, in assay [1], the “Fold selectivity for SST5 vs SST2” value is listed as “+ (+=10 to 99)”.
On to `Cc1cccc2nc(-c3cncc(-c4ccc(F)c(C#N)c4)c3N3CC[C@H](N)C3)[nH]c12` [Compound 2-37, 5-{4-[(3S)-3-aminopyrrolidin-1-yl]-5-(4-methyl-1H-1,3-benzodiazol-2-yl)pyridin-3-yl}-2-fluorobenzonitrile], for which the EC50 in assay [1] was under 10 nM; in assay [1] (setting [3]) it was under 10 nM; in assay [2] it was 100 to 1000 nM. The “Fold selectivity for SST5 vs SST2” value in assay [1] was “+++ (+++=≥500)”.
On to `N#Cc1cc(F)cc(-c2cncc(-c3nc4c(F)ccc(F)c4[nH]3)c2N2CC[C@H](N)C2)c1` [Compound 2-38, 3-{4-[(3S)-3-aminopyrrolidin-1-yl]-5-(4,7-difluoro-1H-1,3-benzodiazol-2-yl)pyridin-3-yl}-5-fluorobenzonitrile], for which the figures for the EC50 in assay [1], in assay [1] (setting [3]) and in assay [2] were under 10 nM, under 10 nM and 100 to 1000 nM, respectively. For the same compound, the “Fold selectivity for SST5 vs SST2” value in assay [1] is listed as “+++ (+++=≥500)”.
As for `N#Cc1cc(-c2cncc(-c3nc4cccc(F)c4[nH]3)c2N2CC[C@H](N)C2)ccc1Cl` [Compound 2-39, 5-{4-[(3S)-3-aminopyrrolidin-1-yl]-5-(4-fluoro-1H-1,3-benzodiazol-2-yl)pyridin-3-yl}-2-chlorobenzonitrile], the EC50 was under 10 nM in assay [1], under 10 nM in assay [1] (setting [3]) and 100 to 1000 nM in assay [2]. Besides, the “Fold selectivity for SST5 vs SST2” value in assay [1] is recorded as “++ (++=100 to 499)”.
Take `NC(=O)c1cccc(-c2cncc(-c3nc4c(F)ccc(F)c4[nH]3)c2N2CC[C@H](N)C2)c1` [Compound 2-43, 3-{4-[(3S)-3-aminopyrrolidin-1-yl]-5-(4,7-difluoro-1H-1,3-benzodiazol-2-yl)pyridin-3-yl}benzamide]: the EC50 was 10 to 100 nM in assay [1], 10 to 100 nM in assay [1] (setting [3]) and over 1000 nM in assay [2]. The “Fold selectivity for SST5 vs SST2” value in assay [1] was “+++ (+++=≥500)”.
Regarding `N#Cc1cc(-c2cncc(-c3nc4c(F)ccc(F)c4[nH]3)c2N2CC[C@H](N)C2)ccc1F` [Compound 2-44, 5-{4-[(3S)-3-aminopyrrolidin-1-yl]-5-(4,7-difluoro-1H-1,3-benzodiazol-2-yl)pyridin-3-yl}-2-fluorobenzonitrile], the EC50 in assay [1] is under 10 nM; in assay [1] (setting [3]), under 10 nM; in assay [2], 100 to 1000 nM. The “Fold selectivity for SST5 vs SST2” value in assay [1] is “+++ (+++=≥500)”.
On to `Cc1ccc(-c2cncc(-c3nc4c(F)ccc(F)c4[nH]3)c2N2CC[C@H](N)C2)cc1C#N` [Compound 2-49, 5-{4-[(3S)-3-aminopyrrolidin-1-yl]-5-(4,7-difluoro-1H-1,3-benzodiazol-2-yl)pyridin-3-yl}-2-methylbenzonitrile], for which the EC50 was under 10 nM in assay [1], under 10 nM in assay [1] (setting [3]) and 100 to 1000 nM in assay [2]. Moreover, the “Fold selectivity for SST5 vs SST2” value in assay [1] is listed as “++ (++=100 to 499)”.
For `N#Cc1cc(-c2cncc(-c3nc4ccc(F)c(F)c4[nH]3)c2N2CC[C@H](N)C2)ccc1F` [Compound 2-52, 5-{4-[(3S)-3-aminopyrrolidin-1-yl]-5-(4,5-difluoro-1H-1,3-benzodiazol-2-yl)pyridin-3-yl}-2-fluorobenzonitrile], the EC50 in assay [1] is under 10 nM; in assay [1] (setting [3]) it was under 10 nM; in assay [2], 100 to 1000 nM. Further, the “Fold selectivity for SST5 vs SST2” value in assay [1] was “+++ (+++=≥500)”.
